According to the METLIN SMRT retention time set (Domingo-Almenara et al. 2019):

Assay: gradient 5% acetonitrile 3 min, to 50% in 2 min, to 85% in 15 min, held 3 min, 100 µL/min
Details: column: Zorbax Extend-C18 2.1 x 50 mm; eluents: water / acetonitrile, 0.1% formic acid
Outline: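 Retention times come from adduct peaks that were picked computationally and then checked by hand. The standards, pure and pooled in mixtures of ~100 molecules, were run on a Zorbax Extend-C18 column (2.1 × 50 mm, 1.8 μm) at 100 μL/min with water and acetonitrile, each with 0.1% formic acid. Detection was by quadrupole time-of-flight mass spectrometry in positive and negative ionization mode, with a dead volume of 40 μL and a dwell volume of 900 μL.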

SMILES: COc1ccc(OC)c(CNC(=O)C2CCCN(c3nnc4c(Cl)cccn34)C2)c1 (stereo not given)
- RP-LC retention time: 722 s

SMILES: Cc1oc(C2CCN(C(=O)c3ccsc3)CC2)nc1C(=O)N1CCCCC1
- RP-LC retention time: 745 s

SMILES: CCn1ccc2c(cc(C(=O)Nc3cc(OC)c(OC)c(OC)c3)n2C)c1=O
- RP-LC retention time: 715 s

SMILES: O=C(Cn1c(=O)n(Cc2cccnc2)c(=O)c2ncccc21)c1ccc2c(c1)CCCC2
- RP-LC retention time: 630 s

SMILES: CCn1c(=O)c(N2CCN(C(=O)Nc3cccc(Br)c3)CC2)nc2ccccc21
- RP-LC retention time: 1030 s

SMILES: COc1cccc(CNC(=O)c2ccc3c(c2)nc2n3CCN(Cc3ccccc3)C2=O)c1
- RP-LC retention time: 777 s

SMILES: O=C(NCCc1ccccc1)N1CCc2nc[nH]c2C1
- RP-LC retention time: 575 s

SMILES: Cc1cc2oc(=O)c(C)c(C)c2c2c1C(=O)CC(c1ccc3c(c1)OCO3)O2 (stereo not given)
- RP-LC retention time: 1110 s

SMILES: Cc1cc(-c2nnc(-c3ccco3)o2)c(C)n1CC(=O)NCc1ccc(F)cc1F
- RP-LC retention time: 857 s

SMILES: Cc1cc(C)cc(C(=O)NC2CCN(c3ccccc3)C2=O)c1 (stereo not given)
- RP-LC retention time: 862 s

SMILES: CC(NC(=O)c1c(O)c2sccc2n(Cc2ccccc2)c1=O)c1ccccc1 (stereo not given)
- RP-LC retention time: 1350 s

SMILES: Cc1cnc2c(c1SCC(=O)N(C)c1ccccc1)c(=O)n(C)c(=O)n2C
- RP-LC retention time: 769 s

SMILES: COc1ccc(NC(=O)CCc2cccc3[nH]ccc23)c(OC)c1
- RP-LC retention time: 831 s

SMILES: Cc1cccc(NC(=O)C2CCN(S(=O)(=O)c3cc(C(=O)N4CCCCCC4)cs3)CC2)n1
- RP-LC retention time: 769 s

SMILES: CCc1ccc(NC(=O)c2cn(CC3CCCO3)cc3c(=O)n(-c4ccccc4)nc2-3)cc1 (stereo not given)
- RP-LC retention time: 1160 s

SMILES: CC1CCCCN1CCNC(=O)c1csc(-c2ccc(N3CCCC3)nc2)n1 (stereo not given)
- RP-LC retention time: 557 s

SMILES: Cc1ccc(CNC(=O)C2=C3CCCN3c3ccc(F)cc3S2(=O)=O)cc1
- RP-LC retention time: 909 s

SMILES: O=S(=O)(NCc1nc(-c2ccc(-c3csc(C4CC4)n3)cc2)no1)c1ccc(Cl)cc1
- RP-LC retention time: 1190 s

SMILES: CCCCC(=O)Nc1ccc2c(c1)nc(CN1CCN(C)CC1)n2C(C)C
- RP-LC retention time: 575 s

SMILES: COC(=O)c1ccc(NS(=O)(=O)c2cc3n(c2)CCN(C(C)C)C3=O)cc1
- RP-LC retention time: 731 s

SMILES: Cc1ccc(Sc2nccnc2N2CCCC(C(=O)N3CCN(c4ccc(F)cc4)CC3)C2)cc1 (stereo not given)
- RP-LC retention time: 1230 s

SMILES: O=C(Cn1cnc2nc3c(cc2c1=O)CCCC3)N1CCN(c2cccc(C(F)(F)F)c2)CC1
- RP-LC retention time: 881 s

SMILES: COc1ccc(OC)c(NC(=O)Cn2nc(N3CCOCC3)c3ccccc3c2=O)c1
- RP-LC retention time: 796 s

SMILES: CN(Cc1ccco1)C(=O)c1ccc2ccnc(N3CCN(c4ccc(Cl)cc4)CC3)c2c1
- RP-LC retention time: 917 s

SMILES: Cc1nc(CSc2nc3cc([N+](=O)[O-])ccc3s2)cs1
- RP-LC retention time: 916 s

SMILES: Cc1ccc(N2CC(c3nc(-c4ccc5c(c4)ncn5CCC(=O)N4CCCC4)no3)CC2=O)cc1 (stereo not given)
- RP-LC retention time: 676 s

SMILES: CCc1noc(NC(C)=O)c1-c1ccc(C)c(S(=O)(=O)Nc2c(C)cc(C)cc2C)c1
- RP-LC retention time: 904 s

SMILES: CCOc1ccccc1CNC(=O)CCc1nnc2c3cc(-c4ccc(F)cc4)nn3ccn12
- RP-LC retention time: 830 s

SMILES: CNC(=O)C1CCCN(c2nc3ncn(CC(=O)Nc4ccc(F)cc4)c(=O)c3s2)C1 (stereo not given)
- RP-LC retention time: 634 s

SMILES: Cc1ccc(C)c(S(=O)(=O)N2CCC3(CC2)NCCN=C3NCc2cc(F)cc(F)c2)c1
- RP-LC retention time: 774 s

SMILES: Fc1ccc(OCc2nnc3sc(-c4ccccn4)nn23)cc1
- RP-LC retention time: 846 s

SMILES: Cc1c(Cl)cccc1NC(=O)C1CCN(c2cc(-n3ccnc3C)ncn2)CC1
- RP-LC retention time: 581 s

SMILES: COc1ccc(C(C)NC(=O)C2C(=O)NC3(C)CC2c2ccccc2O3)cc1 (stereo not given)
- RP-LC retention time: 747 s

SMILES: CCC(C)NC(=O)c1cn(-c2cc(-c3nc(C4CC4)no3)ccn2)cn1 (stereo not given)
- RP-LC retention time: 840 s

SMILES: O=C(CCc1nnn2c1CN(C(=O)Cc1c[nH]c3ccccc13)CC2)N1CCCC1
- RP-LC retention time: 641 s

SMILES: O=C1NCCOCCN(S(=O)(=O)c2cccc(F)c2)[C@H]2CCC[C@@H]12
- RP-LC retention time: 748 s

SMILES: O=C(Nc1ccccc1Cl)N1CCC(N2CCN(Cc3ccc(F)cc3)C(=O)C2=O)CC1
- RP-LC retention time: 776 s

SMILES: COc1ccc(-c2nc(-c3cn(-c4ccc(F)cc4)nn3)no2)cc1OC
- RP-LC retention time: 960 s

SMILES: Cc1ccccc1CN1CC(F)(F)C[C@H]1COc1ccncc1
- RP-LC retention time: 821 s

SMILES: Cc1ccc(-c2noc(Cn3cnc4c(cnn4-c4ccc(Br)cc4)c3=O)n2)cc1
- RP-LC retention time: 1250 s

SMILES: O=C(CSc1nnc(-c2cccc(Cl)c2)o1)Nc1ccc(C(F)(F)F)cc1
- RP-LC retention time: 1050 s

SMILES: COc1ccccc1C(=O)N1CCC2(CC1)NC(=O)c1ccc(F)cc1N2C
- RP-LC retention time: 725 s

SMILES: COc1cccc(CNC(=O)C2CCN(c3nnc4cccc(C)n34)CC2)c1
- RP-LC retention time: 642 s

SMILES: Cc1ccc(-c2noc(CN3C(=O)C(C)Oc4ccccc43)n2)cc1 (stereo not given)
- RP-LC retention time: 1120 s

SMILES: Cc1cc(C)cc(NC(=O)C2CCN(C(=O)c3ncn4c3COC(c3ccc(F)cc3)C4)CC2)c1 (stereo not given)
- RP-LC retention time: 816 s

SMILES: CC1=C(c2ccc(F)cc2)S(=O)(=O)N=C1N1CCCN(C(=O)c2cccc(C)c2)CC1
- RP-LC retention time: 859 s

SMILES: COc1ccc(S(=O)(=O)Nc2ccc3c(c2)N(C(C)=O)CC3)c(C)c1
- RP-LC retention time: 722 s

SMILES: CO[C@@H]1C(O)[C@H](O[C@H]2CC[C@@]3(C=O)[C@H](CC[C@@H]4[C@@H]3CC[C@]3(C)[C@@H](C5=CC(=O)OC5)CC[C@]43O)C2)OC(C)[C@@H]1O (stereo not given in full)
- RP-LC retention time: 772 s

SMILES: Cn1nc(-c2nnc(-c3ccccc3)o2)c2c1CCN(S(=O)(=O)c1ccc(Cl)s1)C2
- RP-LC retention time: 1010 s

SMILES: CCc1noc(NC(C)=O)c1-c1ccc(OC)c(S(=O)(=O)N2CCC3(CC2)OCCO3)c1
- RP-LC retention time: 714 s

SMILES: Cc1cc2c(cc1S(=O)(=O)N1CCCC1C(=O)NCc1ccccc1Cl)OC(C)C(=O)N2 (stereo not given)
- RP-LC retention time: 812 s

SMILES: O=C(Cn1cc(-c2ccccc2)c2ncnc(N3CCOCC3)c21)NCc1ccc(Cl)cc1
- RP-LC retention time: 778 s

SMILES: CN(C)S(=O)(=O)c1ccc2c(c1)cc(C(=O)NCCc1c[nH]c3ccccc13)n2C
- RP-LC retention time: 895 s

SMILES: O=C(Cn1cnc2c(sc3nc(-c4ccccc4)ccc32)c1=O)Nc1cccc(Cl)c1
- RP-LC retention time: 1080 s

SMILES: N#C/C(=C\c1cccnc1)c1ccc(Br)cc1
- RP-LC retention time: 999 s

SMILES: O=C(Nc1cccc(Cl)c1F)C1CC(=O)N(c2ccc3c(c2)CCN3C(=O)C2CC2)C1 (stereo not given)
- RP-LC retention time: 831 s

SMILES: Cn1c(N2CCN(C(=O)c3ccccc3Cl)CC2)cc(=O)n(C)c1=O
- RP-LC retention time: 622 s

SMILES: CN1C(=O)c2ccccc2Oc2ccc(C(=O)N3CCCCCC3)cc21
- RP-LC retention time: 846 s

SMILES: CC(=O)Nc1ccc(NC(=O)Cn2cccc(-c3nc(-c4ccc(Cl)cc4)no3)c2=O)cc1
- RP-LC retention time: 937 s

SMILES: COc1ccc(NS(=O)(=O)c2cc(-c3cc(C(F)(F)F)on3)sc2C)c(OC)c1
- RP-LC retention time: 1130 s

SMILES: CCN1CCCC1CNC(=O)C1c2ccccc2C(=O)N(CCOC)C1c1ccc(F)cc1 (stereo not given)
- RP-LC retention time: 640 s

SMILES: CC(=O)Nc1onc(C)c1-c1ccc(C)c(S(=O)(=O)N(C)Cc2ccccc2)c1
- RP-LC retention time: 905 s

SMILES: CC1CCc2onc(C(=O)N(CCC#N)c3ccccc3)c2C1 (stereo not given)
- RP-LC retention time: 945 s

SMILES: CC(C)N1CCN(c2ccc3nnc(C4CCC4)n3n2)CC1
- RP-LC retention time: 548 s

SMILES: COc1ccc(-c2ccnc3nc(CC(C)C)nn23)c(F)c1
- RP-LC retention time: 904 s

SMILES: CC1CCN(c2nc3c(c(=O)n(C)c(=O)n3C)n2Cc2ccc(Br)cc2)CC1
- RP-LC retention time: 1250 s

SMILES: O=C(Nc1cc(F)cc(F)c1)c1c(O)c2cccnc2n(-c2ccccc2)c1=O
- RP-LC retention time: 709 s

SMILES: CC1CCN(C(=O)c2nnc(-c3ccc(S(=O)(=O)N4CCC(C)CC4)cc3)o2)CC1
- RP-LC retention time: 1120 s

SMILES: O=C(Cc1ccc(Cl)cc1)N1CCN(c2ncccc2-c2nnc(C3CC3)o2)CC1
- RP-LC retention time: 872 s

SMILES: COc1ccc(OCc2noc(CNS(=O)(=O)CCN3C(=O)CCCC3=O)n2)cc1
- RP-LC retention time: 693 s

SMILES: O=C(CSc1ncnc2ccccc12)NCCc1ccccc1
- RP-LC retention time: 706 s

SMILES: CCOc1ccc(-n2nnnc2CNC(=O)CCCN2C(=O)c3ccccc3C2=O)cc1
- RP-LC retention time: 734 s

SMILES: COc1ccc(OCC(O)CN(CCO)CC(O)Cn2ccc3ccccc32)cc1 (stereo not given)
- RP-LC retention time: 591 s

SMILES: COc1cc(Nc2c(C(=O)N3CCCC3)cnc3nc(C)ccc23)cc(OC)c1
- RP-LC retention time: 616 s

SMILES: CCCCNC(=O)CCC(=O)Nc1ccc2nc(N3CCN(C)CC3)cc(C)c2c1
- RP-LC retention time: 520 s

SMILES: Cc1c(C(=O)N2CCC(C)CC2)c(S(=O)(=O)N2CCN(c3ccccn3)CC2)c(C)n1C
- RP-LC retention time: 664 s

SMILES: Cc1ccc(-c2ncccc2CNC(=O)c2ccco2)cc1
- RP-LC retention time: 608 s

SMILES: COc1ccc(-c2nnc3sc(-c4ccc(N(C)C)cc4)nn23)cc1
- RP-LC retention time: 1200 s

SMILES: CCOC(=O)c1c(C)c(CCC(=O)N2CCCCCC2)n(C)c1C
- RP-LC retention time: 897 s

SMILES: COc1ccc(Nc2c(-c3ccc(SC)cc3)nc3cnccn23)cc1OC
- RP-LC retention time: 818 s

SMILES: Cn1cc(CN2CCCC(COc3ccccc3C(=O)NC3CC3)C2)c2ccccc21 (stereo not given)
- RP-LC retention time: 686 s

SMILES: O=C(NCC1CCCO1)C1CCN(C(=O)C2Sc3ccccc3NC2=O)CC1 (stereo not given)
- RP-LC retention time: 642 s

SMILES: COC(=O)C1=CN(c2ccc(F)cc2)c2ccccc2S1(=O)=O
- RP-LC retention time: 790 s

SMILES: Cn1nc2n(c1=O)CCN(Cc1ccc(C(C)(C)C)cc1)C2
- RP-LC retention time: 707 s

SMILES: CCN(CC)C(=O)c1ccc(-c2nc3cc(NS(=O)(=O)c4ccc(C)c(C)c4)ccc3n2C)cc1
- RP-LC retention time: 726 s
